The values that follow come from US5229410A, “6-substituted-hexahydrobenz[cd]indoles” (Eli Lilly and Company, priority 1991, dated 1993).

The test concerns the target T1, serotonin 1A receptor (Rattus norvegicus, UniProt P19327).
T1 construct: from tissue; host or cells: cerebral cortex of male Sprague-Dawley rats (synaptosomal membranes)
T1 sequence (P19327 1-422): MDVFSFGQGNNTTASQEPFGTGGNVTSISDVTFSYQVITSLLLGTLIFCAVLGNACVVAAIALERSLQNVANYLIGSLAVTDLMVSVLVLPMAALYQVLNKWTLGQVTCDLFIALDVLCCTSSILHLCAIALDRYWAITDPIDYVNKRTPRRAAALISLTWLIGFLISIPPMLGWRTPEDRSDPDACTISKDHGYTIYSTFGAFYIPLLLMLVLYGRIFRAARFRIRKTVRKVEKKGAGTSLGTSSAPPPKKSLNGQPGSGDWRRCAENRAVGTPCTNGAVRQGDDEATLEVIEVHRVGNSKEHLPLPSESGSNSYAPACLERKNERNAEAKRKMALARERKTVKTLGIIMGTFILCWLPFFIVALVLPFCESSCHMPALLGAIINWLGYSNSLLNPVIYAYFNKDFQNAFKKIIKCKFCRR
Briefly: serotonin 1A receptor binding (3H-8-OH-DPAT, rat cerebral cortex synaptosomal membranes). Also on record: species or system Male Sprague-Dawley rats. To be noted: 0.4 nM 3H-8-OH-DPAT, pH 7.4, 37° C., 10 min, read-out: IC50 (concentration necessary to inhibit the binding of 3H-8-OH-DPAT by 50%). The method, then:
The compound of Example 14 was evaluated for its ability to interact with serotonin 1A receptor using the following procedure which is generally set forth in Wong et al., J. Neural Transm., 71, 207-218 (1988). Male Sprague-Dawley rats (110-150 g) from Harlan Industries (Cumberland, Ill.) were fed a Purina Chow ad libitum for at least 3 days before being used in the studies. Rats were killed by decapitation. The brains were rapidly removed, and the cerebral cortices were dissected out at 4° C.
Brain tissues were homogenized in 0.32M sucrose. After centrifugation at 1000×g for 10 min and then at 17,000×g for 20 min, a crude synaptosomal fraction was sedimented. The pellet was suspended in 100 vol of 50 mM Tris-HCl, pH 7.4, incubated at 37° C. for 10 min, and centrifuged at 50,000×g for 10 min. The process was repeated and the final pellet was suspended in ice-chilled 50 mM Tris-HCl, pH 7.4. […]
Binding of (^3 H-8-OH-DPAT) was performed according to the previously described method [Wong et al., J. Neural Transm. […] Radioactivity was measured with a liquid scintillation spectrometer. […] Specific binding of ^3 H-8-OH-DPAT is defined as the difference of radioactivity bound in the absence and in the presence of 10 μM unlabeled 8-OH-DPAT. […]

Each structure is given as a SMILES string.

With `C#Cc1ccc2c3c1C[C@H](N(CCC)CCC)C[C@@H]3CN2` [Example 14, (2aS,4R)-6-ethynyl-4-(di-n-propylamino)-1,2,2a,3,4,5-hexahydrobenz[cd]indole], the IC50 amounted to 0.5 nM.
